According to the NIST ThermoML archive (doi:10.1016/j.jct.2004.07.018):

Experiment: mn = molality of the nth substance listed, in mol/kg
Settings: 101.3 kPa, Liquid, buoyancy

CCOS(=O)(=O)[O-].CCn1cc[n+](C)c1 [1-ethyl-3-methylimidazolium ethyl sulfate] + O
Settings | mass density [kg/m3]
278.15 K, m1 = 0.2224 | 1010
278.15 K, m1 = 0.4472 | 1019.6
278.15 K, m1 = 0.6739 | 1028.5
278.15 K, m1 = 0.903 | 1037.1
278.15 K, m1 = 1.132 | 1045.3
278.15 K, m1 = 1.364 | 1053.1
278.15 K, m1 = 1.598 | 1060.5
278.15 K, m1 = 1.835 | 1067.6
278.15 K, m1 = 2.072 | 1074.2
278.15 K, m1 = 2.313 | 1080.5
278.15 K, m1 = 2.554 | 1086.4
278.15 K, m1 = 2.798 | 1092.2
278.15 K, m1 = 3.044 | 1098.2
283.15 K, m1 = 0.2224 | 1009.6
283.15 K, m1 = 0.4472 | 1018.9
283.15 K, m1 = 0.6739 | 1027.7
283.15 K, m1 = 0.903 | 1036.1
283.15 K, m1 = 1.132 | 1044
283.15 K, m1 = 1.364 | 1051.5
283.15 K, m1 = 1.598 | 1058.8
283.15 K, m1 = 1.835 | 1065.6
283.15 K, m1 = 2.072 | 1072
283.15 K, m1 = 2.313 | 1078.2
283.15 K, m1 = 2.554 | 1084
283.15 K, m1 = 2.798 | 1089.6
283.15 K, m1 = 3.044 | 1095
288.15 K, m1 = 0.2224 | 1008.7
288.15 K, m1 = 0.4472 | 1017.8
288.15 K, m1 = 0.6739 | 1026.5
288.15 K, m1 = 0.903 | 1034.8
288.15 K, m1 = 1.132 | 1042.6
288.15 K, m1 = 1.364 | 1050.1
288.15 K, m1 = 1.598 | 1057.2
288.15 K, m1 = 1.835 | 1063.8
288.15 K, m1 = 2.072 | 1070.2
288.15 K, m1 = 2.313 | 1076.2
288.15 K, m1 = 2.554 | 1082
288.15 K, m1 = 2.798 | 1087.4
288.15 K, m1 = 3.044 | 1092.5
293.15 K, m1 = 0.2224 | 1007.6
293.15 K, m1 = 0.4472 | 1016.7
293.15 K, m1 = 0.6739 | 1025.2
293.15 K, m1 = 0.903 | 1033.3
293.15 K, m1 = 1.132 | 1041
293.15 K, m1 = 1.364 | 1048.3
293.15 K, m1 = 1.598 | 1055.2
293.15 K, m1 = 1.835 | 1061.9
293.15 K, m1 = 2.072 | 1068.1
293.15 K, m1 = 2.313 | 1074.1
293.15 K, m1 = 2.554 | 1079.6
293.15 K, m1 = 2.798 | 1085
293.15 K, m1 = 3.044 | 1090
298.15 K, m1 = 0.2224 | 1006.3
298.15 K, m1 = 0.4472 | 1015
298.15 K, m1 = 0.6739 | 1023.3
298.15 K, m1 = 0.903 | 1031.2
298.15 K, m1 = 1.132 | 1038.7
298.15 K, m1 = 1.364 | 1045.7
298.15 K, m1 = 1.598 | 1052.5
298.15 K, m1 = 1.835 | 1058.9
298.15 K, m1 = 2.072 | 1064.9
298.15 K, m1 = 2.313 | 1070.6
298.15 K, m1 = 2.554 | 1076.1
298.15 K, m1 = 2.798 | 1081.3
298.15 K, m1 = 3.044 | 1086.2
303.15 K, m1 = 0.2224 | 1004.7
303.15 K, m1 = 0.4472 | 1013.3
303.15 K, m1 = 0.6739 | 1021.6
303.15 K, m1 = 0.903 | 1029.3
303.15 K, m1 = 1.132 | 1036.8
303.15 K, m1 = 1.364 | 1043.9
303.15 K, m1 = 1.598 | 1050.6
303.15 K, m1 = 1.835 | 1057
303.15 K, m1 = 2.072 | 1062.9
303.15 K, m1 = 2.313 | 1068.6
303.15 K, m1 = 2.554 | 1074.1
303.15 K, m1 = 2.798 | 1079.4
303.15 K, m1 = 3.044 | 1084.3
308.15 K, m1 = 0.2224 | 1002.9
308.15 K, m1 = 0.4472 | 1011.6
308.15 K, m1 = 0.6739 | 1019.6
308.15 K, m1 = 0.903 | 1027.7
308.15 K, m1 = 1.132 | 1034.6
308.15 K, m1 = 1.364 | 1041.5
308.15 K, m1 = 1.598 | 1048.3
308.15 K, m1 = 1.835 | 1054.6
308.15 K, m1 = 2.072 | 1060.5
308.15 K, m1 = 2.313 | 1066.2
308.15 K, m1 = 2.554 | 1071.7
308.15 K, m1 = 2.798 | 1076.8
308.15 K, m1 = 3.044 | 1081.8
313.15 K, m1 = 0.2224 | 1001.1
313.15 K, m1 = 0.4472 | 1009.6
313.15 K, m1 = 0.6739 | 1017.9
313.15 K, m1 = 0.903 | 1025.6
313.15 K, m1 = 1.132 | 1032.8
313.15 K, m1 = 1.364 | 1039.7
313.15 K, m1 = 1.598 | 1046.4
313.15 K, m1 = 1.835 | 1052.8
313.15 K, m1 = 2.072 | 1058.8
313.15 K, m1 = 2.313 | 1064.4
313.15 K, m1 = 2.554 | 1069.8
313.15 K, m1 = 2.798 | 1074.9
313.15 K, m1 = 3.044 | 1079.8
318.15 K, m1 = 0.2224 | 999
318.15 K, m1 = 0.4472 | 1007.5
318.15 K, m1 = 0.6739 | 1015.6
318.15 K, m1 = 0.903 | 1023.1
318.15 K, m1 = 1.132 | 1030.4
318.15 K, m1 = 1.364 | 1037.3
318.15 K, m1 = 1.598 | 1043.9
318.15 K, m1 = 1.835 | 1050.2
318.15 K, m1 = 2.072 | 1056.1
318.15 K, m1 = 2.313 | 1061.7
318.15 K, m1 = 2.554 | 1067.1
318.15 K, m1 = 2.798 | 1072.3
318.15 K, m1 = 3.044 | 1077.1
323.15 K, m1 = 0.2224 | 996.6
323.15 K, m1 = 0.4472 | 1005.1
323.15 K, m1 = 0.6739 | 1013
323.15 K, m1 = 0.903 | 1020.5
323.15 K, m1 = 1.132 | 1027.9
323.15 K, m1 = 1.364 | 1034.7
323.15 K, m1 = 1.598 | 1041.3
323.15 K, m1 = 1.835 | 1047.7
323.15 K, m1 = 2.072 | 1053.6
323.15 K, m1 = 2.313 | 1059.4
323.15 K, m1 = 2.554 | 1064.8
323.15 K, m1 = 2.798 | 1070
323.15 K, m1 = 3.044 | 1074.9
328.15 K, m1 = 0.2224 | 994.1
328.15 K, m1 = 0.4472 | 1002.6
328.15 K, m1 = 0.6739 | 1010.6
328.15 K, m1 = 0.903 | 1018.1
328.15 K, m1 = 1.132 | 1025.3
328.15 K, m1 = 1.364 | 1032.1
328.15 K, m1 = 1.598 | 1038.7
328.15 K, m1 = 1.835 | 1045.1
328.15 K, m1 = 2.072 | 1051.1
328.15 K, m1 = 2.313 | 1056.8
328.15 K, m1 = 2.554 | 1062.4
328.15 K, m1 = 2.798 | 1067.4
328.15 K, m1 = 3.044 | 1072.7
333.15 K, m1 = 0.2224 | 991.4
333.15 K, m1 = 0.4472 | 999.8
333.15 K, m1 = 0.6739 | 1007.7
333.15 K, m1 = 0.903 | 1015.4
333.15 K, m1 = 1.132 | 1022.7
333.15 K, m1 = 1.364 | 1029.7
333.15 K, m1 = 1.598 | 1036.4
333.15 K, m1 = 1.835 | 1042.7
333.15 K, m1 = 2.072 | 1048.9
333.15 K, m1 = 2.313 | 1054.9
333.15 K, m1 = 2.554 | 1060.4
333.15 K, m1 = 2.798 | 1065.8
333.15 K, m1 = 3.044 | 1070.9
